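Assay format: 96-well plates, 48-hour exposure. GI50 = concentration required for 50% inhibition of growth.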 Calls of active or inactive are those of the source. Rule as the data show it: active = GI50 up to about 1.1 µM and inactive = higher.
What was measured:
Experiment in all cases: DTP human tumour cell line panel, 48 h
BT-549 = system: BT-549
NCI-H460 = system: NCI-H460
HOP-62 = system: HOP-62
NCI-H522 = system: NCI-H522
NCI/ADR-RES = system: NCI/ADR-RES
SK-OV-3 = system: SK-OV-3
LOX IMVI = system: LOX IMVI
SK-MEL-2 = system: SK-MEL-2
OVCAR-3 = system: OVCAR-3
SK-MEL-28 = system: SK-MEL-28
HCT-15 = system: HCT-15
SF-295 = system: SF-295
ACHN = system: ACHN
COLO 205 = system: COLO 205
SNB-19 = system: SNB-19
MDA-MB-231 = system: MDA-MB-231
IGROV-1 = system: IGROV-1
OVCAR-4 = system: OVCAR-4
MOLT-4 = system: MOLT-4
M19-MEL = system: M19-MEL

Structure (SMILES) | GI50 (BT-549) | GI50 (NCI-H460) | GI50 (HOP-62) | GI50 (NCI-H522) | GI50 (NCI/ADR-RES) | GI50 (SK-OV-3) | GI50 (LOX IMVI) | GI50 (SK-MEL-2) | GI50 (OVCAR-3) | GI50 (SK-MEL-28) | GI50 (HCT-15) | GI50 (SF-295) | GI50 (ACHN) | GI50 (COLO 205) | GI50 (SNB-19) | GI50 (MDA-MB-231) | GI50 (IGROV-1) | GI50 (OVCAR-4) | GI50 (MOLT-4) | GI50 (M19-MEL)
Oc1nc(-c2ccc3ccccc3c2)nc2ccccc12 | > 100 µM (inactive) | 21.9 µM (inactive) | 14.4 µM (inactive) | 73.8 µM (inactive) | 20 µM (inactive) | 30.3 µM (inactive) | > 100 µM (inactive) | 91.8 µM (inactive) | 35.4 µM (inactive) | > 100 µM (inactive) | > 100 µM | 23.4 µM (inactive) | 13.9 µM (inactive) | > 100 µM (inactive) | 19.1 µM (inactive) | 29 µM (inactive) | 19.8 µM (inactive) | 3.81 µM (inactive) | > 100 µM (inactive) | 
O=[N+]([O-])c1nccn1CCCNc1ccnc2cc(Cl)ccc12 | 8.69 µM (inactive) | 3.12 µM (inactive) | 25.5 µM (inactive) | 2.25 µM (inactive) | > 96.6 µM (inactive) | 6.49 µM (inactive) | 4.63 µM (inactive) | 4.29 µM (inactive) | 1.77 µM (inactive) | > 9.86 µM (inactive) | 19.8 µM | 3.8 µM (inactive) | 4.75 µM (inactive) | 3.05 µM (inactive) | 4.06 µM (inactive) | 6.59 µM (inactive) | 7.71 µM (inactive) | 6.41 µM (inactive) | 3.64 µM (inactive) | 
O=C(Nc1ccc(S(=O)(=O)Nc2ncccn2)cc1)c1c2ccccc2nc2ccccc12 | > 100 µM (inactive) | > 100 µM (inactive) | > 100 µM (inactive) | > 100 µM (inactive) | > 100 µM (inactive) | > 100 µM (inactive) | > 100 µM (inactive) | > 100 µM (inactive) | > 100 µM (inactive) | > 100 µM (inactive) | > 100 µM | > 100 µM (inactive) | > 100 µM (inactive) | > 100 µM (inactive) | > 100 µM (inactive) | > 100 µM (inactive) | > 100 µM (inactive) | > 100 µM (inactive) | > 100 µM (inactive) | 
CC1c2cc(c3c(c2O)CN([C@@H](C)C2CCCCC2)CO3)C(C)c2cc(c3c(c2O)CN([C@@H](C)C2CCCCC2)CO3)C(C)c2cc(c3c(c2O)CN([C@@H](C)C2CCCCC2)CO3)C(C)c2cc1c1c(c2O)CN([C@@H](C)C2CCCCC2)CO1 (stereo not given in full) | 1.77 µM (inactive) | 1.28 µM (inactive) | 1.97 µM (inactive) | 0.607 µM (active) | 1.27 µM (inactive) | 1.48 µM (inactive) | 0.681 µM (active) | 2.11 µM (inactive) | 1.71 µM (inactive) | 1.76 µM (inactive) | 1.51 µM | 1.8 µM (inactive) | 1.47 µM (inactive) | 1.36 µM (inactive) | 1.61 µM (inactive) | 1.31 µM (inactive) | 1.32 µM (inactive) | 0.929 µM (active) | 1.34 µM (inactive) | 
CC(NC(=O)C(N)CC(=O)O)NC(=O)N1CCOCC1 (stereo not given) | > 100 µM (inactive) | > 100 µM (inactive) | > 100 µM (inactive) | > 100 µM (inactive) | > 100 µM (inactive) | > 100 µM (inactive) | > 100 µM (inactive) | > 100 µM (inactive) | > 100 µM (inactive) | > 100 µM (inactive) | > 100 µM | > 100 µM (inactive) | > 100 µM (inactive) | > 100 µM (inactive) | > 100 µM (inactive) | > 100 µM (inactive) | > 100 µM (inactive) | > 100 µM (inactive) | > 100 µM (inactive) | 
CCOC(=O)C1=[N+]([O-])OC2=C(O)CCCC21 (stereo not given) | > 100 µM (inactive) | > 100 µM (inactive) | > 100 µM (inactive) | > 100 µM (inactive) | > 100 µM (inactive) | > 100 µM (inactive) | > 100 µM (inactive) | > 100 µM (inactive) | > 100 µM (inactive) | > 100 µM (inactive) | > 100 µM | > 100 µM (inactive) | > 100 µM (inactive) | > 100 µM (inactive) | > 100 µM (inactive) | > 100 µM (inactive) | > 100 µM (inactive) | > 100 µM (inactive) | > 100 µM (inactive) | 
O=[N+]([O-])c1ccc(Sc2c3ccccc3nc3ccccc23)cn1 | 14.6 µM (inactive) | > 72.9 µM (inactive) | > 42.6 µM (inactive) | 4.08 µM (inactive) | 39.5 µM (inactive) | > 53.8 µM (inactive) | 13 µM (inactive) | 25.4 µM (inactive) | 8.11 µM (inactive) | 24.7 µM (inactive) | 9.55 µM | > 100 µM (inactive) | 12.2 µM (inactive) | 3.36 µM (inactive) | 24.5 µM (inactive) | 18 µM (inactive) | 32.4 µM (inactive) | 21.2 µM (inactive) | 2.19 µM (inactive) | 
CCOC(=O)C(C/C=C/CO)N(C)C(=O)OC(C)(C)C (stereo not given) | > 100 µM (inactive) | > 100 µM (inactive) | > 100 µM (inactive) | 10.1 µM (inactive) | > 100 µM (inactive) | > 100 µM (inactive) | > 100 µM (inactive) | > 100 µM (inactive) | > 100 µM (inactive) | > 100 µM (inactive) | > 100 µM | > 100 µM (inactive) | > 100 µM (inactive) | > 100 µM (inactive) | > 100 µM (inactive) | > 100 µM (inactive) | > 100 µM (inactive) | > 100 µM (inactive) | > 100 µM (inactive) | 
Oc1c(N2CCOCC2)cc(-c2cc(N3CCOCC3)c(O)c3ccccc23)c2ccccc12 | 1.77 µM (inactive) | 2.83 µM (inactive) | 1.69 µM (inactive) | 2.23 µM (inactive) | 3.13 µM (inactive) | 6.47 µM (inactive) | 1.77 µM (inactive) | 2.65 µM (inactive) | 2.47 µM (inactive) | 1.75 µM (inactive) | 2.31 µM | 1.71 µM (inactive) | 2.93 µM (inactive) | 1.93 µM (inactive) | 3.61 µM (inactive) | 1.24 µM (inactive) | 2.4 µM (inactive) | 1.93 µM (inactive) | 1.71 µM (inactive) | 
Sc1ccccc1S |  | > 100 µM (inactive) | > 100 µM (inactive) |  |  | > 100 µM (inactive) | > 100 µM (inactive) |  | > 100 µM (inactive) | > 100 µM (inactive) | > 100 µM | > 100 µM (inactive) | > 100 µM (inactive) | > 100 µM (inactive) | > 100 µM (inactive) |  | > 100 µM (inactive) | > 100 µM (inactive) |  | > 100 µM (inactive)
Cc1nc2ccccc2n1CCc1nc2ccccc2[nH]1 | > 100 µM (inactive) | > 100 µM (inactive) | > 100 µM (inactive) | > 100 µM (inactive) | > 100 µM (inactive) | > 100 µM (inactive) | > 100 µM (inactive) | > 100 µM (inactive) | > 100 µM (inactive) | > 100 µM (inactive) | > 100 µM | > 100 µM (inactive) | > 100 µM (inactive) | > 100 µM (inactive) | > 100 µM (inactive) | > 100 µM (inactive) | > 100 µM (inactive) | > 100 µM (inactive) | > 100 µM (inactive) | 
Nc1c2c(nc3cc(F)c(F)cc13)CCC2 | > 100 µM (inactive) | 22.1 µM (inactive) | > 100 µM (inactive) | 72.8 µM (inactive) | 60.1 µM (inactive) | 62.1 µM (inactive) | 36.6 µM (inactive) | > 100 µM (inactive) | > 100 µM (inactive) | 52.7 µM (inactive) | 45.4 µM | 41.2 µM (inactive) | 32.6 µM (inactive) | 43.5 µM (inactive) | 48.6 µM (inactive) | 56.1 µM (inactive) | 45.7 µM (inactive) | 58.2 µM (inactive) | 30.5 µM (inactive) | 
CC(C)OC(=O)OCSc1ccccc1/N=C/c1cccc([N+](=O)[O-])c1 | > 10 µM (inactive) | > 10 µM (inactive) | > 10 µM (inactive) | > 10 µM (inactive) | > 10 µM (inactive) | > 10 µM (inactive) | > 10 µM (inactive) | > 10 µM (inactive) | > 10 µM (inactive) | > 10 µM (inactive) | > 10 µM | > 10 µM (inactive) | > 10 µM (inactive) | > 10 µM (inactive) | > 10 µM (inactive) | > 10 µM (inactive) | > 10 µM (inactive) | > 10 µM (inactive) | > 10 µM (inactive) | 
Clc1ccc(/C=N/C23CC4CC(CC(C4)C2)C3)c(Cl)c1 | > 10 µM (inactive) | > 10 µM (inactive) | > 10 µM (inactive) | > 10 µM (inactive) | > 10 µM (inactive) | > 10 µM (inactive) | > 10 µM (inactive) | > 10 µM (inactive) | > 10 µM (inactive) | > 10 µM (inactive) | > 10 µM | > 10 µM (inactive) | > 10 µM (inactive) | > 10 µM (inactive) | > 10 µM (inactive) | > 10 µM (inactive) | > 10 µM (inactive) | > 10 µM (inactive) | > 10 µM (inactive) | 
O=C(CCCN1CCC(O)(c2ccc(Cl)cc2)CC1)c1ccc(F)cc1 [HALOPERIDOL] | 31 µM (inactive) | 18.8 µM (inactive) | 36.1 µM (inactive) | 20.6 µM (inactive) | 30.1 µM (inactive) | 34.9 µM (inactive) | 18 µM (inactive) | 20.7 µM (inactive) | 18.3 µM (inactive) | 18 µM (inactive) | 16.6 µM | 15.6 µM (inactive) | 39.4 µM (inactive) | 18.6 µM (inactive) | > 100 µM (inactive) | 22 µM (inactive) | 57.3 µM (inactive) | 85.7 µM (inactive) | 89.7 µM (inactive) | 

From ChEMBL document CHEMBL1201862, “PubChem BioAssay data set” (2004)
